Columns and labels:
Assay type in all cases: cell-based
ACHN = test: cells; conditions: ACHN (Renal Cancer), 10 μM, 48 hours
PC-3 = test: cells; conditions: PC-3 (Prostate Cancer), 10 μM, 48 hours
M14 = test: cells; conditions: M14 (Melanoma), 10 μM, 48 hours
NCI-H226 = test: cells; conditions: NCI-H226 (Non-Small Cell Lung Cancer), 10 μM, 48 hours
NCI-H322M = test: cells; conditions: NCI-H322M (Non-Small Cell Lung Cancer), 10 μM, 48 hours
SF-539 = test: cells; conditions: SF-539 (CNS Cancer), 10 μM, 48 hours
MDA-MB-435 = test: cells; conditions: MDA-MB-435 (Melanoma), 10 μM, 48 hours
A498 = test: cells; conditions: A498 (Renal Cancer), 10 μM, 48 hours
U251 = test: cells; conditions: U251 (CNS Cancer), 10 μM, 48 hours
RPMI-8226 = test: cells; conditions: RPMI-8226 (Leukemia), 10 μM, 48 hours
LOX IMVI = test: cells; conditions: LOX IMVI (Melanoma), 10 μM, 48 hours
786-0 = test: cells; conditions: 786-0 (Renal Cancer), 10 μM, 48 hours
HCC-2998 = test: cells; conditions: HCC-2998 (Colon Cancer), 10 μM, 48 hours
CAKI-1 = test: cells; conditions: CAKI-1 (Renal Cancer), 10 μM, 48 hours
CCRF-CEM = test: cells; conditions: CCRF-CEM (Leukemia), 10 μM, 48 hours
NCI-H522 = test: cells; conditions: NCI-H522 (Non-Small Cell Lung Cancer), 10 μM, 48 hours
SR = test: cells; conditions: SR (Leukemia), 10 μM, 48 hours
IGROV1 = test: cells; conditions: IGROV1 (Ovarian Cancer), 10 μM, 48 hours
UACC-62 = test: cells; conditions: UACC-62 (Melanoma), 10 μM, 48 hours
BT-549 = test: cells; conditions: BT-549 (Breast Cancer), 10 μM, 48 hours
SF-295 = test: cells; conditions: SF-295 (CNS Cancer), 10 μM, 48 hours
DU-145 = test: cells; conditions: DU-145 (Prostate Cancer), 10 μM, 48 hours
TK-10 = test: cells; conditions: TK-10 (Renal Cancer), 10 μM, 48 hours
SW-620 = test: cells; conditions: SW-620 (Colon Cancer), 10 μM, 48 hours
NCI-H23 = test: cells; conditions: NCI-H23 (Non-Small Cell Lung Cancer), 10 μM, 48 hours
K-562 = test: cells; conditions: K-562 (Leukemia), 10 μM, 48 hours
SK-MEL-5 = test: cells; conditions: SK-MEL-5 (Melanoma), 10 μM, 48 hours
HL-60 (TB) = test: cells; conditions: HL-60 (TB) (Leukemia), 10 μM, 48 hours
SNB-19 = test: cells; conditions: SNB-19 (CNS Cancer), 10 μM, 48 hours
A549/ATCC = test: cells; conditions: A549/ATCC (Non-Small Cell Lung Cancer), 10 μM, 48 hours
SF-268 = test: cells; conditions: SF-268 (CNS Cancer), 10 μM, 48 hours
UACC-257 = test: cells; conditions: UACC-257 (Melanoma), 10 μM, 48 hours
COLO 205 = test: cells; conditions: COLO 205 (Colon Cancer), 10 μM, 48 hours
[1] = test system: 55 to 60 cancer cell lines; conditions: 10 μM, 48 hours, all tested cell lines

SMILES	growth percentage (ACHN) [%]	growth percentage (PC-3) [%]	growth percentage (M14) [%]	growth percentage (NCI-H226) [%]	growth percentage (NCI-H322M) [%]	growth percentage (SF-539) [%]	growth percentage (MDA-MB-435) [%]	growth percentage (A498) [%]	growth percentage (U251) [%]	growth percentage (RPMI-8226) [%]	growth percentage (LOX IMVI) [%]	growth percentage (786-0) [%]	growth percentage (HCC-2998) [%]	growth percentage (CAKI-1) [%]	growth percentage (CCRF-CEM) [%]	growth percentage (NCI-H522) [%]	growth percentage (SR) [%]	growth percentage (IGROV1) [%]	growth percentage (UACC-62) [%]	growth percentage (BT-549) [%]	also measured
O=C1c2cc(Cl)ccc2-c2c(N3CCOCC3)nc3ccccc3c21 [SJ-8, 9-Chloro-6-morpholino-11H-indeno[1,2-c]quinolin-11-one]	81.66	79.64	106.99	87.21	91.28	96.24	106.62	93.88	95.72	83.40	91.20	103.71	107.23	94.99	88.85	91.11	85.94	86.47	88.33	93.95	growth percentage (SF-295): 102.43%; growth percentage (DU-145): 119.02%; growth percentage (TK-10): 101.98%; growth percentage (SW-620): 103.71%; growth percentage (NCI-H23): 90.40%; growth percentage (K-562): 89.01%; growth percentage (SK-MEL-5): 99.19%; growth percentage (HL-60 (TB)): 97.09%; growth percentage (SNB-19): 100.01%; growth percentage (A549/ATCC): 101.47%; growth percentage (SF-268): 103.58%; growth percentage (UACC-257): 103.31%; growth percentage (COLO 205): 100.71%; Mean (mean growth percentage of the tested cancer cell lines) [1]: 93.66%
O=C1c2cc(Cl)ccc2-c2c(N3CCSCC3)nc3ccccc3c21 [SJ-9, 9-Chloro-6-thiomorpholino-11H-indeno[1,2-c]quinolin-11-one]	86.42	87.77	101.69	94.22	92.29	92.93	107.70	99.15	111.96	95.20	100.04	99.53	103.16	82.68	105.04	92.76	99.53	72.45	94.90	92.91	growth percentage (SF-295): 93.33%; growth percentage (DU-145): 106.04%; growth percentage (TK-10): 121.79%; growth percentage (SW-620): 91.88%; growth percentage (NCI-H23): 94.33%; growth percentage (K-562): 100.89%; growth percentage (SK-MEL-5): 89.52%; growth percentage (HL-60 (TB)): 94.50%; growth percentage (SNB-19): 113.43%; growth percentage (A549/ATCC): 104.35%; growth percentage (SF-268): 96.13%; growth percentage (UACC-257): 107.44%; growth percentage (COLO 205): 96.30%; Mean (mean growth percentage of the tested cancer cell lines) [1]: 94.75%
